System: PANC-1 (human pancreatic cancer-derived cell line)
Experiment: MTS assay on Panc-1 (human pancreas carcinoma cell line)
Format: cell-based
Settings: 144 h; for IC50: PANC-1, MTS method, cell survival 6 days after exposure, 4-parameter logistic fit; for inhibition at 1 µM: read-out: Growth inhibition (%) 1 μM; for inhibition at 0.3125 µM: read-out: Growth inhibition (%) 0.3125 μM; for inhibition at 30 µM: read-out: Growth inhibition (%) 30 μM; for inhibition at 10 µM: read-out: Growth inhibition (%) 10 μM
Method in brief: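 Viability measured by MTS 6 days after treating human pancreatic carcinoma PANC-1 cells with compound serially diluted 2-fold in DMSO; absorbance 492–630 nm normalized to solvent control. Triplicate measurements averaged and fitted to a 4-parameter logistic curve.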

CC(C)C[C@H]1ON(C(=O)/C=C/c2ccccn2)[C@H]2CN(C3CCN(C4CCCCC4)CC3)C(=O)[C@H](CC(C)C)N2C1=O [ID-63, (3R,6S,9aS)-8-(1-cyclohexylpiperidin-4-yl)-3,6-diisobutyl-1-((E)-3-(pyridin-2-yl)acryloyl)tetrahydropyrazino[2,1-c][1,2,4]oxadiazine-4,7(3H,6H)-dione]
IC50: 1400 nM

CN1CCC(N2C[C@@H]3N(C(=O)/C=C/c4nc5ccccc5s4)c4ccc(F)cc4C(=O)N3[C@@H](CCCCN(C)C3CCN(C(=O)OC(C)(C)C)CC3)C2=O)CC1 [ID-59, tert-butyl 4-((4-((4S,11aS)-11-((E)-3-(benzo[d]thiazol-2-yl)acryloyl)-8-fluoro-2-(1-methylpiperidin-4-yl)-3,6-dioxo-1,3,4,6,11,11a-hexahydro-2H-pyrazino[2,1-b]quinazolin-4-yl)butyl) (methyl)amino)piperidine-1-carboxylate]
IC50: 550 nM
inhibition at 1 µM (PANC-1, MTS, 6 days): 98.8%

CC(C)C[C@H]1ON(C(=O)/C=C/c2nc(C#CCN(C)C)cs2)[C@H]2CN([C@H]3CCN(CCCCO)C3)C(=O)[C@H](CC(C)(C)C)N2C1=O [ID-88, (3R,6S,9aS)-1-((E)-3-(4-(3-(dimethylamino)prop-1-yn-1-yl)thiazol-2-yl)acryloyl)-8-((S)-1-(4-hydroxybutyl)pyrrolidin-3-yl)-3-isobutyl-6-neopentyltetrahydropyrazino[2,1-c][1,2,4]oxadiazine-4,7(3H,6H)-dione]
inhibition at 0.3125 µM (PANC-1, MTS, 6 days): 38%

CC(C)C[C@H]1ON(C(=O)/C=C/c2nc3ccccc3s2)[C@H]2CN(C3CCN(CCCC(=O)O)CC3)C(=O)[C@H](CC(C)(C)C)N2C1=O [ID-76, 4-(4-((3R,6S,9aS)-1-((E)-3-(benzo[d]thiazol-2-yl)acryloyl)-3-isobutyl-6-neopentyl-4,7-dioxohexahydropyrazino[2,1-c][1,2,4]oxadiazin-8 (1H)-yl)piperidin-1-yl)butanoic acid]
IC50: 1600 nM

CC(C)C[C@H]1ON(C(=O)/C=C/c2ccccn2)[C@H]2CN(CCC(=O)Nc3nccs3)C(=O)[C@H](CC(C)C)N2C1=O [ID-27, 3-((3R,6S,9aS)-3,6-diisobutyl-4,7-dioxo-1-((E)-3-(pyridin-2-yl)acryloyl)hexahydropyrazino[2,1-c][1,2,4]oxadiazin-8 (1H)-yl)—N-(thiazol-2-yl)propanamide]
IC50: 8600 nM
inhibition at 30 µM (PANC-1, MTS, 6 days): 99.3%

CC(C)C[C@H]1ON(C(=O)/C=C/c2ccccn2)[C@H]2CN(C3CCC(N)CC3)C(=O)[C@H](CC(C)C)N2C1=O (stereo partly drawn) [ID-68, (3R,6S,9aS)-8-(4-aminocyclohexyl)-3,6-diisobutyl-1-((E)-3-(pyridin-2-yl)acryloyl)tetrahydropyrazino[2,1-c][1,2,4]oxadiazine-4,7(3H,6H)-dione]
IC50: 2800 nM

CC(C)C[C@H]1ON(C(=O)/C=C/c2ccccn2)[C@H]2CN(C3CCN(C4CCN(C(C)C)CC4)CC3)C(=O)[C@H](CC(C)C)N2C1=O [ID-40, (3R,6S,9aS)-3,6-diisobutyl-8-(1′-isopropyl-[1,4′-bipiperidin]-4-yl)-1-((E)-3-(pyridin-2-yl)acryloyl)tetrahydropyrazino[2,1-c][1,2,4]oxadiazine-4,7(3H,6H)-dione]
IC50: 4000 nM
inhibition at 10 µM (PANC-1, MTS, 6 days): 102%

CC(C)(C)C[C@H]1C(=O)N(CC2CCCCC2)C[C@@H]2N(C(=O)/C=C/c3cnc4ccccc4n3)O[C@H](CC3CCCCC3)C(=O)N21 [ID-25, (3R,6S,9aS)-3,8-bis(cyclohexylmethyl)-6-neopentyl-1-((E)-3-(quinoxalin-2-yl)acryloyl)tetrahydropyrazino[2,1-c] [1,2,4]oxadiazine-4,7(3H,6H)-dione]
inhibition at 0.625 µM (PANC-1, MTS, 6 days, 0.625 μM, read-out: Growth inhibition (%) 0.625 μM): 4.7%
inhibition at 1 µM (PANC-1, MTS, 6 days): 6%
inhibition at 30 µM (PANC-1, MTS, 6 days): 98.5%

CC(C)C[C@H]1ON(C(=O)/C=C/c2nc3ccccc3s2)[C@H]2CN(C3CCN(C(=O)c4ncc(F)cn4)CC3)C(=O)[C@H](CC(C)C)N2C1=O [ID-50, (3R,6S,9aS)-1-((E)-3-(benzo[d]thiazol-2-yl)acryloyl)-8-(1-(5-fluoropyrimidine-2-carbonyl)piperidin-4-yl)-3,6-diisobutyltetrahydropyrazino[2,1-c][1,2,4]oxadiazine-4,7(3H,6H)-dione]
IC50: 590 nM
inhibition at 10 µM (PANC-1, MTS, 6 days): 101%

CC(C)C[C@H]1ON(C(=O)/C=C/c2nnc(C3CC3)s2)[C@H]2CN(CCC(N)=O)C(=O)[C@H](CC(C)C)N2C1=O [ID-29, 3-((3R,6S,9aS)-1-((E)-3-(5-cyclopropyl-1,3,4-thiadiazol-2-yl)acryloyl)-3,6-diisobutyl-4,7-dioxohexahydropyrazino[2,1-c][1,2,4]oxadiazin-8(1H)-yl)propanamide]
IC50: 2300 nM
inhibition at 10 µM (PANC-1, MTS, 6 days): 101%

CC(C)C[C@H]1ON(C(=O)/C=C/c2ccnn2C)[C@H]2CN(C3CCN(C)CC3)C(=O)[C@H](CC(C)C)N2C1=O [ID-44, (3R,6S,9aS)-3,6-diisobutyl-1-((E)-3-(1-methyl-1H-pyrazol-5-yl)acryloyl)-8-(1-methylpiperidin-4-yl)tetrahydropyrazino[2,1-c][1,2,4]oxadiazine-4,7(3H,6H)-dione]
inhibition at 10 µM (PANC-1, MTS, 6 days): 94.7%

CC(C)C[C@H]1ON(C(=O)/C=C/c2nc3ccccc3s2)[C@H]2CN(C3CCN(CCC(CO)CO)CC3)C(=O)[C@H](CC(C)(C)C)N2C1=O [ID-83, (3R,6S,9aS)-1-((E)-3-(benzo[d]thiazol-2-yl)acryloyl)-8-(1-(4-hydroxy-3-(hydroxymethyl)butyl)piperidin-4-yl)-3-isobutyl-6-neopentyltetrahydropyrazino[2,1-c][1,2,4]oxadiazine-4,7(3H,6H)-dione]
inhibition at 0.3125 µM (PANC-1, MTS, 6 days): 46.5%

C#Cc1sc(/C=C/C(=O)N2O[C@H](CC(C)C)C(=O)N3[C@@H]2CN(C2CCN(C(C)C)CC2)C(=O)[C@@H]3CC(C)(C)C)nc1C#CCCCO [ID-100, (3R,6S,9aS)-1-((E)-3-(5-ethynyl-4-(5-hydroxypent-1-yn-1-yl)thiazol-2-yl)acryloyl)-3-isobutyl-8-(1-isopropylpiperidin-4-yl)-6-neopentyltetrahydropyrazino[2,1-c][1,2,4]oxadiazine-4,7(3H,6H)-dione]
inhibition at 0.15625 µM (PANC-1, MTS, 6 days, 0.15625 μM, read-out: Growth inhibition (%) 0.15625 μM): 99.8%

CNC(=O)CCN1C[C@@H]2N(C(=O)/C=C/c3ccccn3)O[C@H](CC(C)C)C(=O)N2[C@@H](CC(C)C)C1=O [ID-18, 3-((3R,6S,9aS)-3,6-diisobutyl-4,7-dioxo-1-((E)-3-(pyridin-2-yl)acryloyl)hexahydropyrazino[2,1-c][1,2,4]oxadiazin-8 (1H)-yl)—N-methylpropanamide]
IC50: 15900 nM
inhibition at 30 µM (PANC-1, MTS, 6 days): 96.4%

CC(C)C[C@H]1ON(C(=O)/C=C/c2ccccn2)[C@H]2CN(C3CCN(C4CCOCC4)CC3)C(=O)[C@H](CC(C)C)N2C1=O [ID-62, (3R,6S,9aS)-3,6-diisobutyl-1-((E)-3-(pyridin-2-yl)acryloyl)-8-(1-(tetrahydro-2H-pyran-4-yl)piperidin-4-yl)tetrahydropyrazino[2,1-c][1,2,4]oxadiazine-4,7(3H,6H)-dione]
IC50: 3400 nM

CC(C)C[C@H]1ON(C(=O)/C=C/c2nc3ccccc3s2)[C@H]2CN([C@H]3CCN(CCCCO)C3)C(=O)[C@H](CC(C)(C)C)N2C1=O [ID-5, (3R,6S,9aS)-1-((E)-3-(benzo[d]thiazol-2-yl)acryloyl)-8-((S)-1-(4-hydroxybutyl)pyrrolidin-3-yl)-3-isobutyl-6-neopentyltetrahydropyrazino[2,1-c][1,2,4]oxadiazine-4,7(3H,6H)-dione]
IC50: 180 nM

CC(C)C[C@H]1ON(C(=O)/C=C/c2ccccn2)[C@H]2CN(CCC(=O)N3CCNCC3)C(=O)[C@H](CC(C)C)N2C1=O [ID-21, (3R,6S,9aS)-3,6-diisobutyl-8-(3-oxo-3-(piperazin-1-yl)propyl)-1-((E)-3-(pyridin-2-yl)acryloyl)tetrahydropyrazino[2,1-c][1,2,4]oxadiazine-4,7 (3H, 6H)-dione]
IC50: 19800 nM
inhibition at 30 µM (PANC-1, MTS, 6 days): 99.5%

CC(C)C[C@H]1ON(C(=O)/C=C/c2nc3ccccc3s2)[C@H]2CN(C3CCN(C(C)C)CC3)C(=O)[C@H](CC(C)(C)C)N2C1=O [ID-73, (3R,6S,9aS)-1-((E)-3-(benzo[d]thiazol-2-yl)acryloyl)-3-isobutyl-8-(1-isopropylpiperidin-4-yl)-6-neopentyltetrahydropyrazino[2,1-c][1,2,4]oxadiazine-4,7(3H,6H)-dione]
IC50: 140 nM
inhibition at 0.3125 µM (PANC-1, MTS, 6 days): 88.1%

CC(C)C[C@H]1ON(C(=O)/C=C/c2cc(C#N)ccn2)[C@H]2CN(C3CCN(C)CC3)C(=O)[C@H](CC(C)C)N2C1=O [ID-48, 2-((E)-3-((3R,6S,9aS)-3,6-diisobutyl-8-(1-methylpiperidin-4-yl)-4,7-dioxohexahydropyrazino[2,1-c][1,2,4]oxadiazin-1(6H)-yl)-3-oxoprop-1-en-1-yl)isonicotinonitrile]
IC50: 580 nM
inhibition at 10 µM (PANC-1, MTS, 6 days): 100%

C#Cc1csc(/C=C/C(=O)N2O[C@H](CC(C)C)C(=O)N3[C@@H]2CN([C@H]2CCN(CCCCO)C2)C(=O)[C@@H]3CC(C)(C)C)n1 [ID-81, (3R,6S,9aS)-1-((E)-3-(4-ethynylthiazol-2-yl)acryloyl)-8-((S)-1-(4-hydroxybutyl)pyrrolidin-3-yl)-3-isobutyl-6-neopentyltetrahydropyrazino[2,1-c][1,2,4]oxadiazine-4,7(3H,6H)-dione]
inhibition at 0.3125 µM (PANC-1, MTS, 6 days): 69.6%

CC(C)C[C@H]1ON(C(=O)/C=C/c2nc(C#CCCCCO)cs2)[C@H]2CN(C3CN(CCCCO)C3)C(=O)[C@H](CC(C)(C)C)N2C1=O [ID-92, (3R,6S,9aS)-8-(1-(4-hydroxybutyl)azetidin-3-yl)-1-((E)-3-(4-(6-hydroxyhex-1-yn-1-yl)thiazol-2-yl)acryloyl)-3-isobutyl-6-neopentyltetrahydropyrazino[2,1-c][1,2,4]oxadiazine-4,7(3H,6H)-dione]
IC50: 120 nM

— patent publication US20230265104A1, “NOVEL HETEROCYCLIC COMPOUNDS” (PRISM BIOLAB CO., LTD., priority 2020, published 2023)
